Assay results: BindingDB's records for doi:10.1016/j.bmc.2014.05.025 (University of California, 2014)

Molecular target: T1, Polyunsaturated fatty acid lipoxygenase ALOX12 (Homo sapiens, UniProt P18054)
T1 sequence (P18054 whole entry): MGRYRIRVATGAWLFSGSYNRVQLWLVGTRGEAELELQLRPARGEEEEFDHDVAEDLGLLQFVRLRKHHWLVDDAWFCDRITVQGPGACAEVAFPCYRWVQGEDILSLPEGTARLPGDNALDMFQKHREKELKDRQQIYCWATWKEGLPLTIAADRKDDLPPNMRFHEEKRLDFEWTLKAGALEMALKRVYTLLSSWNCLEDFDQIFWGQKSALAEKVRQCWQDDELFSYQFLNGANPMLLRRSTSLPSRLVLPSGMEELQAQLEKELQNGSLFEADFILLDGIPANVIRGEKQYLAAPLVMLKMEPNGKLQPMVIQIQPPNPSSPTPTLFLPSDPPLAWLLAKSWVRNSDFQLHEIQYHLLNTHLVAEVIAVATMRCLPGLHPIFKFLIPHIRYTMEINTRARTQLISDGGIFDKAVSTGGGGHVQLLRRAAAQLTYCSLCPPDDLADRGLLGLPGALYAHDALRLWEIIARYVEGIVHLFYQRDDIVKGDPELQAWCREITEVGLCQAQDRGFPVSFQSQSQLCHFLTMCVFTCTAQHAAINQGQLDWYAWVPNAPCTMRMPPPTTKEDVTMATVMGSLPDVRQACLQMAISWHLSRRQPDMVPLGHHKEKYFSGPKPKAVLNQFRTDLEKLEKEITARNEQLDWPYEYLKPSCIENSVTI
Experiment: Mixed type inhibition of human platelet 12-lipoxygenase assessed as equilibrium inhibitor constant of dissociation from enzyme by measuring 12-HpETE formation in presence of 0.01% Triton-X-100 by Dixon plot based steady-state inhibition kinetics assay

- Ki: 87 nM
SMILES: CCCCCC(=O)C=CC=CC/C=C\C/C=C\CCCC(=O)O [(5Z,8Z,11Z,13E)-15-oxoicosa-5,8,11,13-tetraenoic acid]
